# Source: US7163941B2, “Pyrido[2,3-d]pyrimidin-7-carboxylic acid derivatives, their manufacture and use as pharmaceutical agents” (Hoffmann-La Roche Inc., priority 2003, dated 2007)
# Tests used:
# [1] = molecular target: T1, Src (p60^c-src, partially purified) (Homo sapiens, UniProt P12931); experiment: SRC-Inhibitor-Assay (time-resolved fluorescence), Src enzyme; format: biochemical; conditions: ATP 5 μM, peptide 10 μM, enzyme 2.5 U/ml, pre-incubation 15 min at 15° C.
# T1 construct: purchased Upstate (UBI)
# T1 sequence (P12931 whole entry, species assumed): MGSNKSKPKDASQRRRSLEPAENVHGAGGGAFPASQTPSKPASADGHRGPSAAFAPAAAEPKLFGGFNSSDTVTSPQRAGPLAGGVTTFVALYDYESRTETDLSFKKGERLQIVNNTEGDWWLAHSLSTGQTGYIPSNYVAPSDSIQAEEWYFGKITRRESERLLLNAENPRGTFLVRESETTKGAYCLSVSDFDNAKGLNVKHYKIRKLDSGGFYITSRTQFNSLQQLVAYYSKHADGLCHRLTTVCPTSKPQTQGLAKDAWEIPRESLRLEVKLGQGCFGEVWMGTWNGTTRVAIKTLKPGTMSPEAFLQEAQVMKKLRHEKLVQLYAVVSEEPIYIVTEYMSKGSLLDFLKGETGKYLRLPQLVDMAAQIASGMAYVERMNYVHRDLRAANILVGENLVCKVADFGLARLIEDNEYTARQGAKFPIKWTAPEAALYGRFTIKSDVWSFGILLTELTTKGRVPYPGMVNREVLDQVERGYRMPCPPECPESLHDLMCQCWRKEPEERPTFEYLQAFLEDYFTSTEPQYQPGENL
# Description: (§1) The activity of the compounds according to this invention as inhibitors for the src-family tyrosine kinases was shown by using the following assay.
# (§2) SRC-Inhibitor-Assay Parameters:
# (§3) • Reaction mixture: • ATP 5 μM • Peptide (R+Ja133-Ro): 10 μM • Ja133-Ro 196 nM • Ro 9.8 μM • PT66 230 ng/ml • Assay buffer: 4 mM MgCl2 • 2 mM TCEP • 50 mM HEPES • 0,1% Tween 20 • pH 7.3 • Enzyme: 2.5 U/ml • Inhibitor: max. 25 μM • min. 0.42 nM Material: • Eu-labelled phosphotyrosine antibody: -for Lck Cisbio Mab PT66-K, • for Src EG&G Wallac PT66 Eu-W1024 (all commercially available). • Peptides: Ro: NH2-A-E-E-E-I-Y-G-E-F-E-A-K-K-K-K-CONH2 (SEQ ID NO: 1), and • Ja133-Ro: Ja133-G-Aminocaprylic acid-A-E-E-E-I-Y-G-E-F-E-A-K-K-K-K-CONH2 (SEQ ID NO: 2), wherein Ja133 is LightCycler-Red 640-N-hydroxy succinimide ester; • whereby both peptides were synthesized by an optimized solid phase peptide synthesis protocol (Merrifield, Fed. Proc. Fed. Amer. Soc. Exp. Biol. 21 (1962) 412) on a Zinsser SMP350 peptide synthesizer. Shortly, the peptide was assembled on 160 mg (22.8 μmol scale) of a Rink-Linker modified polystyrene solid phase by repeatedly conjugating an twenty fold excess of aminoacids each protected by temporary piperidine labile Fmoc- and permanent acid labile tert-Bu-, BOC- and Otert-Bu-groups depending on the side chain function. The substrate sequence AEEEIYGEFEAKKKK (SEQ ID NO: 1) was N-terminal additionally mounted with the spacer amino acids Aminocaprylic acid and Glycin. After cleavage of the N-terminal temporary protecting group the still attached and protected peptide was labeled with a 1.5 fold amount of LightCycler-Red 640-N-hydroxy succinimide ester (purchased by Roche Diagnostics GmbH) and triethylamine. After 3 hrs. the resin was washed with Dimethylformamide and Isopropanol until the eluates of the blue resin got colo-rless. […] The substrate was finally isolated by a preparative reverse phase HPLC purification. The purification yielded 12.2 mg RP-HPLC single peak pure blue material (lyophilisate). The identity was proven by MALDI mass spectroscopy [2720.0]. • Enzymes: Upstate Lck (p56^lck, active), Upstate Src (p60^c-src, partially purified) were purchased from UBI. • Time-resolved Fluorescence Assay: Reader: Perkin Elmer, Wallac Viktor 1420-040 multilabel counter; Liquid handling system: Beckman Coulter, Biomek 2000. ATP, Tween 20, HEPES were purchased from Roche Molecular Biochemicals, MgCl2 and MnCl2 were purchased from Merck Eurolab, TCEP was purchased from Pierce, 384 Well low volume fluorescence plates was purchased from Falcon. Assay Description:
# (§4) At first the enzyme is pre-incubated for 15 min. at 15° C. in aqueous solution with corresponding amounts of inhibitors according to this invention. Then the phosphorylation reaction is started by adding a reaction mixture, containing ATP, Peptide and PT66, and subsequent shaking. The proceeding of this reaction is immediately monitored using time resolved fluorescence spectroscopy in a suitable well plate reader.
# (§5) The IC50-values can be obtained from the reaction rates by using a non-linear curve fit (Excelfit).
# Lck (p56^lck, active) = molecular target: T2, Lck (p56^lck, active) (Homo sapiens, UniProt P06239); experiment: SRC-Inhibitor-Assay (time-resolved fluorescence), Lck enzyme; format: biochemical; conditions: ATP 5 μM, peptide 10 μM, enzyme 2.5 U/ml, pre-incubation 15 min at 15° C.
# T2 construct: purchased Upstate (UBI)
# T2 sequence (P06239 whole entry, species assumed): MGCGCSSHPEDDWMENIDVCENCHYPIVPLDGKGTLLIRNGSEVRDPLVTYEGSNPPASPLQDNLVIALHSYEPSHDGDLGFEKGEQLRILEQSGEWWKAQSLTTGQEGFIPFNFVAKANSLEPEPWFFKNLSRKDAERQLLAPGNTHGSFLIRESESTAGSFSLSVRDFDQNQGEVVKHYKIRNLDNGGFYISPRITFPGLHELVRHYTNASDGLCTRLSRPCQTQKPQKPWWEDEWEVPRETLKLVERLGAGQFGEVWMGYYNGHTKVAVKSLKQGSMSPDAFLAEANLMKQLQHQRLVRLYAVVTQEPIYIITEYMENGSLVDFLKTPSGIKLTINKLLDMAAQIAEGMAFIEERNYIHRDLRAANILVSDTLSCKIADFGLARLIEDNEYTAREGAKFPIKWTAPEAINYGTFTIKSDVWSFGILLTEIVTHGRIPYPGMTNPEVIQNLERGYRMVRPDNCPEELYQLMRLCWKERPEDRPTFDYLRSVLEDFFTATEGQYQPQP
# Description: as §1, §2, §3, §4, §5
SMILES,IC50 [1],"IC50 (Lck (p56^lck, active))"
"O=C(NCCCN1CCOCC1)c1nc2nc(Nc3ccc(F)cc3)ncc2cc1-c1ccccc1Br [Example 3-32, 6-(2-Bromo-phenyl)-2-(4-fluoro-phenylamino)-pyrido[2,3-d]pyrimidine-7-carboxylic acid (3-morpholin-4-yl-propyl)-amide]",117 nM,195 nM
"CN1CCCC1CCNC(=O)c1nc2nc(Nc3ccc(F)cc3)ncc2cc1-c1ccccc1Br (stereo not shown) [Example 3-33, 6-(2-Bromo-phenyl)-2-(4-fluoro-phenylamino)-pyrido[2,3-d]pyrimidine-7-carboxylic acid [2-(1-methyl-pyrrolidin-2-yl)-ethyl]-amide]",44.7 nM,96.9 nM
"CN1CCC(NC(=O)c2nc3nc(Nc4ccc(F)cc4)ncc3cc2-c2ccccc2Br)CC1 [Example 3-21, 6-(2-Bromo-phenyl)-2-(4-fluoro-phenylamino)-pyrido[2,3-d]pyrimidine-7-carboxylic acid (1-methyl-piperidin-4-yl)-amide]",96.2 nM,638 nM
"Cc1cc(CNC(=O)c2nc3nc(Nc4ccc(F)cc4)ncc3cc2-c2ccccc2Br)nn1C [Example 3-41, 6-(2-Bromo-phenyl)-2-(4-fluoro-phenylamino)-pyrido[2,3-d]pyrimidine-7-carboxylic acid (1,5-dimethyl-1H-pyrazol-3-ylmethyl)-amide]",26 nM,126 nM
"O=C(NC1CCNCC1)c1nc2nc(Nc3ccc(N4CCOCC4)cc3)ncc2cc1-c1ccccc1Br [Example 1, 6-(2-Bromo-phenyl)-2-(4-morpholin-4-yl-phenylamino)-pyrido[2,3-d]pyrimidine-7-carboxylic acid piperidin-4-ylamide]",10.7 nM,60.1 nM
"O=C(NCCc1cnc[nH]1)c1nc2nc(Nc3ccc(F)cc3)ncc2cc1-c1ccccc1Br [Example 3-39, 6-(2-Bromo-phenyl)-2-(4-fluoro-phenylamino)-pyrido[2,3-d]pyrimidine-7-carboxylic acid [2-(3H-imidazol-4-yl)-ethyl]-amide]",24.3 nM,114 nM
"NC(=O)CNC(=O)c1nc2nc(Nc3ccc(F)cc3)ncc2cc1-c1ccccc1Br [Example 3-20, 6-(2-Bromo-phenyl)-2-(4-fluoro-phenylamino)-pyrido[2,3-d]pyrimidine-7-carboxylic acid carbamoylmethyl-amide]",62.4 nM,289 nM
"CNCCCNC(=O)c1nc2nc(Nc3ccc(F)cc3)ncc2cc1-c1ccccc1Br [Example 3-31, 6-(2-Bromo-phenyl)-2-(4-fluoro-phenylamino)-pyrido[2,3-d]pyrimidine-7-carboxylic acid (3-methylamino-propyl)-amide]",42.8 nM,100 nM
"CN(C)CCNC(=O)c1nc2nc(Nc3ccc(F)cc3)ncc2cc1-c1ccccc1Br [Example 3-12, 6-(2-Bromo-phenyl)-2-(4-fluoro-phenylamino)-pyrido[2,3-d]pyrimidine-7-carboxylic acid (2-dimethylamino-ethyl)-amide]",34.1 nM,350 nM
"NC(=O)c1nc2nc(Nc3ccc(N4CCOCC4)cc3)ncc2cc1-c1ccccc1Br [Example 3-1, 6-(2-Bromo-phenyl)-2-(4-morpholin-4-yl-phenylamino)-pyrido[2,3-d]pyrimidine-7-carboxylic acid amide]",3 nM,23 nM
"O=C(NC1CN2CCC1CC2)c1nc2nc(Nc3ccc(F)cc3)ncc2cc1-c1ccccc1Br (stereo not shown) [Example 3-35, 6-(2-Bromo-phenyl)-2-(4-fluoro-phenylamino)-pyrido[2,3-d]pyrimidine-7-carboxylic acid (1-aza-bicyclo[2.2.2]oct-3-yl)-amide]",73.1 nM,251 nM
"O=C(NCCN1CCOCC1)c1nc2nc(Nc3ccc(F)cc3)ncc2cc1-c1ccccc1Br [Example 3-22, 6-(2-Bromo-phenyl)-2-(4-fluoro-phenylamino)-pyrido[2,3-d]pyrimidine-7-carboxylic acid (2-morpholin-4-yl-ethyl)-amide]",158 nM,662 nM
"CNC(=O)CNC(=O)c1nc2nc(Nc3ccc(F)cc3)ncc2cc1-c1ccccc1Br [Example 3-24, 6-(2-Bromo-phenyl)-2-(4-fluoro-phenylamino)-pyrido[2,3-d]pyrimidine-7-carboxylic acid methylcarbamoylmethyl-amide]",130 nM,206 nM
"COCCNC(=O)c1nc2nc(Nc3ccc(F)cc3)ncc2cc1-c1ccccc1Br [Example 3-13, 6-(2-Bromo-phenyl)-2-(4-fluoro-phenylamino)-pyrido[2,3-d]pyrimidine-7-carboxylic acid (2-methoxy-ethyl)-amide]",114 nM,360 nM
"CSc1cccc(Nc2ncc3cc(-c4ccccc4Br)c(C(N)=O)nc3n2)c1 [Example 3-3, 6-(2-Bromo-phenyl)-2-(3-methylsulfanyl-phenylamino)-pyrido[2,3-d]pyrimidine-7-carboxylic acid amide]",7.8 nM,

# Other lines, results leading:
IC50 [1],"IC50 (Lck (p56^lck, active))",SMILES
4 nM,9 nM,"CS(=O)(=O)NCCNC(=O)c1nc2nc(Nc3ccc4c(c3)OC(CO)CO4)ncc2cc1-c1ccccc1Br (stereo not shown) [Example 7-24, 6-(2-bromo-phenyl)-2-(3-hydroxymethyl-2,3-dihydro-benzo[1,4]dioxin-6-ylamino)-pyrido[2,3-d]pyrimidine-7-carboxylic acid (2-methanesulfonylamino-ethyl)-amide]"
56.3 nM,694 nM,"NC(=O)c1c[nH]nc1NC(=O)c1nc2nc(Nc3ccc(F)cc3)ncc2cc1-c1ccccc1Br [Example 3-42, 6-(2-Bromo-phenyl)-2-(4-fluoro-phenylamino)-pyrido[2,3-d]pyrimidine-7-carboxylic acid (4-carbamoyl-1H-pyrazol-3-yl)-amide]"
16.2 nM,99.7 nM,"N#Cc1nc2nc(Nc3cccc(S(=O)(=O)CCO)c3)ncc2cc1-c1ccccc1Br [Example 4-6, 6-(2-Bromo-phenyl)-2-[3-(2-hydroxy-ethanesulfonyl)-phenylamino]-pyrido[2,3-d]pyrimidine-7-carbonitrile]"
1 nM,2.5 nM,"CNCCNC(=O)c1nc2nc(Nc3ccc(N4CCOCC4)cc3)ncc2cc1-c1ccccc1Br [Example 3-44, 6-(2-Bromo-phenyl)-2-(4-morpholin-4-yl-phenylamino)-pyrido[2,3-d]pyrimidine-7-carboxylic acid (2-methylamino-ethyl)-amide]"
1.8 nM,12 nM,"CC(=O)Nc1cccc(Nc2ncc3cc(-c4ccccc4Br)c(C(=O)NCCNS(C)(=O)=O)nc3n2)c1 [Example 7-21, 2-(3-acetylamino-phenylamino)-6-(2-bromo-phenyl)-pyrido[2,3-d]pyrimidine-7-carboxylic acid (2-methanesulfonylamino-ethyl)-amide]"
3.5 nM,52.1 nM,"C[S+]([O-])c1cccc(Nc2ncc3cc(-c4ccccc4Br)c(C#N)nc3n2)c1 (stereo not shown) [Example 4-5, 6-(2-Bromo-phenyl)-2-(3-methanesulfinyl-phenylamino)-pyrido[2,3-d]pyrimidine-7-carbonitrile]"
0.4 nM,11.4 nM,"CS(=O)(=O)NCCNC(=O)c1nc2nc(Nc3ccc(N4CCOCC4)cc3)ncc2cc1-c1ccccc1Br [Example 7-15, 6-(2-bromo-phenyl)-2-(4-morpholin-4-yl-phenylamino)-pyrido[2,3-d]pyrimidine-7-carboxylic acid (2-methanesulfonylamino-ethyl)-amide]"
